Reference: patent publication US4902814A, “Fluorobenzyl esters” (Imperial Chemical Industries PLC, priority 1986, dated 1990)
Where two headings read alike, the source gives them in different places.

Legend:
Format in all cases: in vivo
[1] = system: Musca domestica (houseflies - adults); assay: Mortality test on Musca domestica (MD), contact; conditions: topical, 24 h, read-out: MD grading of mortality; for mortality at 100 ppm: rate 100 ppm
Protocol: (§1) The activity of the Product was determined using a variety of insect pests. The Product was used in the form of liquid preparations containing from 100 to 500 parts per million (ppm) by weight of the Product. The preparations were made by dissolving the Product in acetone and diluting the solutions with water containing 0.1% by weight of a wetting agent sold under the trade name "SYNPERONIC" NX until the liquid preparations contained the required concentration of the Product. "SYNPERONIC" is a Registered Trade Mark.
(§2) The test procedure adopted with regard to each pest was basically the same and comprised supporting a number of the pests on a medium which was usually a host plant or a foodstuff on which the pests feed, and treating either or both the pests and the medium with the preparations. The mortality of the pests was then assessed at periods usually varying from one to seven days after the treatment.
(§3) The results of the tests are given in Table III for each of the Products, at the rate in parts per million given in the second column, as a grading of mortality designated as A, B or C wherein A indicates 80-100% mortality or knockdown, B indicates 50-79% mortality or knockdown and C indicates less than 50% mortality or knockdown.
(§4) In Table III the pest organism used is designated by a letter code and the pests species, the support medium or food, and the type and duration of test is given in Table II.

[2] = system: Blattella germanica (cockroach nymphs); assay: Mortality test on Blattella germanica (BG), residual; conditions: 72 h, read-out: BG grading of mortality
Protocol: as §1, §2, §3, §4

[3] = system: Tetranychus urticae (spider mites - ova); assay: Mortality test on Tetranychus urticae ova (TUe), contact; conditions: topical, 144 h, read-out: TUe grading of mortality; for mortality at 100 ppm: rate 100 ppm
Protocol: as §1, §2, §3, §4

[4] = system: Tetranychus urticae (spider mites - adults); assay: Mortality test on Tetranychus urticae adults (TUa), contact; conditions: topical, 72 h, read-out: TUa grading of mortality; for mortality at 100 ppm: rate 100 ppm
Protocol: as §1, §2, §3, §4
(spider mites - adults)

[5] = system: Diabrotica balteata (rootworm larvae); assay: Mortality test on Diabrotica balteata (DB), residual; conditions: 72 h, read-out: DB grading of mortality
Protocol: as §1, §2, §3, §4

[6] = system: Spodoptera exigua (lesser army worm - larvae); assay: Mortality test on Spodoptera exigua (SP), residual; conditions: 72 h, read-out: SP grading of mortality
Protocol: as §1, §2, §3, §4
(lesser army worm - larvae)

[7] = system: Heliothis virescens (tobacco budworm - larvae); assay: Mortality test on Heliothis virescens (HV), residual; conditions: 72 h, read-out: HV grading of mortality; for mortality at 100 ppm: rate 100 ppm
Protocol: as §1, §2, §3, §4
(tobacco budworm - larvae)

Myzus persicae (aphids) = assay: Mortality test on Myzus persicae (MP), contact; conditions: topical, 72 h, read-out: MP grading of mortality; for mortality at 100 ppm: rate 100 ppm
Protocol: as §1, §2, §3, §4

[8] = system: Nephotettix cincticeps (green leaf hopper - nymphs); assay: Mortality test on Nephotettix cincticeps (NC), contact; conditions: topical, 72 h, rice plant, 3 days, read-out: NC grading of mortality; for mortality at 100 ppm: rate 100 ppm; for mortality at 500 ppm: rate 500 ppm
Protocol: as §1, §2, §3, §4
NC Nephotettix cincticeps

[9] = cotton wool/sugar, contact, 1 day
[10] = French bean leaf, contact, 6 days
[11] = French bean leaf, contact, 3 days
[12] = Chinese cabbage leaf, contact, 3 days
[13] = rate 500 ppm, cotton wool/sugar, contact, 1 day
[14] = rate 500 ppm, French bean leaf, contact, 6 days
[15] = rate 500 ppm, cotton leaf, residual, 3 days
[16] = rate 500 ppm, Chinese cabbage leaf, contact, 3 days
[17] = rate 500 ppm, French bean leaf, contact, 3 days
[18] = rate 500 ppm, plastic pot, residual, 3 days
[19] = rate 500 ppm, filter paper/maize seed, residual, 3 days

SMILES | mortality at 500 ppm [1, 13] [%] | mortality at 500 ppm [2] [%] | mortality at 500 ppm [3, 14] [%] | mortality at 500 ppm ([5]; in Zea mays) [%] | mortality at 500 ppm ([6]; in Gossypium hirsutum) [%] | mortality at 500 ppm [7, 15] [%] | mortality at 500 ppm (Myzus persicae (aphids); [16]) [%] | mortality at 500 ppm [4, 17] [%] | also measured
CC1(C)C(C=C(F)F)C1C(=O)OCc1ccc(F)c(Cc2ccccc2)c1 (racemic) [III] |  |  |  |  |  |  |  |  | mortality at 100 ppm [1, 9]: 80 to 100%; mortality at 100 ppm [2]: < 50%; mortality at 100 ppm [3, 10]: < 50%; mortality at 100 ppm [4, 11]: 50 to 79%; mortality at 100 ppm ([5]; in Zea mays): 80 to 100%; mortality at 100 ppm ([6]; in Gossypium hirsutum): 80 to 100%; mortality at 100 ppm ([7]; cotton leaf, residual, 3 days): 80 to 100%; mortality at 100 ppm (Myzus persicae (aphids); [12]): 80 to 100%
CC1(C)C(C=C(Br)Br)C1C(=O)OCc1ccc(F)c(Cc2ccccc2)c1 (racemic) [X] | 80 to 100 | 80 to 100 | < 50 | 80 to 100 | 80 to 100 | 80 to 100 | 80 to 100 |  | 
CC1(C)[C@H](C(=O)OC(C#N)c2ccc(F)c(Cc3ccccc3)c2)[C@@H]1/C=C(\Cl)C(F)(F)F (relative stereo) [II] | 80 to 100 | 80 to 100 | 80 to 100 | 80 to 100 | 80 to 100 | 80 to 100 | 80 to 100 | 80 to 100 | 
CC1(C)[C@H](C=C(Cl)Cl)[C@H]1C(=O)OCc1ccc(F)c(Cc2ccccc2)c1 (relative stereo) [IV] |  |  |  |  |  |  |  |  | mortality at 100 ppm [1, 9]: 80 to 100%; mortality at 100 ppm [2]: < 50%; mortality at 100 ppm [8]: 80 to 100%; mortality at 100 ppm [3, 10]: < 50%; mortality at 100 ppm [4, 11]: < 50%; mortality at 100 ppm ([5]; in Zea mays): 80 to 100%; mortality at 100 ppm ([6]; in Gossypium hirsutum): 80 to 100%; mortality at 100 ppm ([7]; cotton leaf, residual, 3 days): 80 to 100%; mortality at 100 ppm (Myzus persicae (aphids); [12]): 80 to 100%
CC1(C)[C@H](C=C(C(F)(F)F)C(F)(F)F)[C@H]1C(=O)OCc1ccc(F)c(Cc2ccccc2)c1 (relative stereo) [IX] | 80 to 100 | 80 to 100 | < 50 | 80 to 100 | 80 to 100 | 80 to 100 | 80 to 100 | 80 to 100 | 
CC1(C)[C@H](/C=C(\Cl)C(F)(F)F)[C@@H]1C(=O)OCc1ccc(F)c(Cc2ccccc2)c1 (relative stereo) [I] | 80 to 100 | 80 to 100 | 80 to 100 | 80 to 100 | 80 to 100 | 80 to 100 | 80 to 100 | 80 to 100 | 
CC(C)(C)c1ncc([C@@H]2[C@@H](C(=O)OCc3ccc(F)c(Cc4ccccc4)c3)C2(C)C)cn1 (relative stereo) [XI] |  |  |  |  |  |  |  |  | mortality at 500 ppm [1]: 50 to 79%; mortality at 500 ppm [2, 18]: < 50%; mortality at 500 ppm ([3]; in Phaseolus vulgaris): 80 to 100%; mortality at 500 ppm [4]: 80 to 100%; mortality at 500 ppm [5, 19]: 80 to 100%; mortality at 500 ppm [6, 15]: 80 to 100%; mortality at 500 ppm ([7]; in Gossypium hirsutum): 80 to 100%; mortality at 500 ppm (Myzus persicae (aphids); in Brassica rapa): 80 to 100%
CC(C)=CC1C(C(=O)OCc2ccc(F)c(Cc3ccccc3)c2)C1(C)C (centres unmarked) [VIII] | 80 to 100 | < 50 | < 50 | 80 to 100 | 80 to 100 | 80 to 100 | 80 to 100 | < 50 | 
CC1(C)C(C(=O)OCc2ccc(F)c(Cc3ccccc3)c2)C1(C)C [VII] | 80 to 100 |  | < 50 |  |  | 80 to 100 | 80 to 100 |  | mortality at 500 ppm [2, 18]: 80 to 100%; mortality at 500 ppm [5, 19]: 80 to 100%; mortality at 500 ppm [6, 15]: < 50%
CC1(C)[C@H](C(=O)OC(C#N)c2ccc(F)c(Cc3ccccc3)c2)[C@@H]1/C=C(\Cl)C(F)(F)F (some centres unmarked) [VI] |  |  |  |  |  |  |  |  | mortality at 100 ppm [1, 9]: 80 to 100%; mortality at 100 ppm [2]: 80 to 100%; mortality at 100 ppm [8]: 80 to 100%; mortality at 100 ppm [3, 10]: < 50%; mortality at 100 ppm [4, 11]: 80 to 100%; mortality at 100 ppm ([5]; in Zea mays): 80 to 100%; mortality at 100 ppm ([6]; in Gossypium hirsutum): 80 to 100%; mortality at 100 ppm ([7]; cotton leaf, residual, 3 days): 80 to 100%; mortality at 100 ppm (Myzus persicae (aphids); [12]): 80 to 100%
CC1(C)[C@H](C(=O)OCc2ccc(F)c(Cc3ccccc3)c2)[C@@H]1/C=C(\Cl)C(F)(F)F [V] | 80 to 100 |  | 80 to 100 | 80 to 100 | 80 to 100 | 80 to 100 | 80 to 100 | 80 to 100 | mortality at 500 ppm [8]: 80 to 100%
CC(OC(=O)C1C(C=C(Cl)C(F)(F)F)C1(C)C)c1ccc(F)c(Cc2ccccc2)c1 (centres unmarked) [XIII] | 80 to 100 | 80 to 100 |  | 80 to 100 | 80 to 100 | 80 to 100 | 80 to 100 | 80 to 100 | mortality at 500 ppm [8]: 80 to 100%
CC(C)(C)c1ncc(C2C(C(=O)OC(C#N)c3ccc(F)c(Cc4ccccc4)c3)C2(C)C)cn1 (centres unmarked) [XII] |  |  |  |  |  |  |  |  | mortality at 500 ppm [1]: < 50%; mortality at 500 ppm [2, 18]: < 50%; mortality at 500 ppm ([3]; in Phaseolus vulgaris): 50 to 79%; mortality at 500 ppm [4]: 80 to 100%; mortality at 500 ppm [5, 19]: 80 to 100%; mortality at 500 ppm [6, 15]: < 50%; mortality at 500 ppm ([7]; in Gossypium hirsutum): < 50%; mortality at 500 ppm (Myzus persicae (aphids); in Brassica rapa): 50 to 79%
